“Also recorded” adds a separate entry of the source.
Legend:
[1] = target: T1, FLT3 (Homo sapiens, UniProt P36888); assay: Cellular Chem-CLIP/C-Chem-CLIP to study occupancy of an RTK; assay type: cell-based
T1 construct: endogenous in cells; host or cells: MDA-MB-231
T1 sequence (P36888 27-993): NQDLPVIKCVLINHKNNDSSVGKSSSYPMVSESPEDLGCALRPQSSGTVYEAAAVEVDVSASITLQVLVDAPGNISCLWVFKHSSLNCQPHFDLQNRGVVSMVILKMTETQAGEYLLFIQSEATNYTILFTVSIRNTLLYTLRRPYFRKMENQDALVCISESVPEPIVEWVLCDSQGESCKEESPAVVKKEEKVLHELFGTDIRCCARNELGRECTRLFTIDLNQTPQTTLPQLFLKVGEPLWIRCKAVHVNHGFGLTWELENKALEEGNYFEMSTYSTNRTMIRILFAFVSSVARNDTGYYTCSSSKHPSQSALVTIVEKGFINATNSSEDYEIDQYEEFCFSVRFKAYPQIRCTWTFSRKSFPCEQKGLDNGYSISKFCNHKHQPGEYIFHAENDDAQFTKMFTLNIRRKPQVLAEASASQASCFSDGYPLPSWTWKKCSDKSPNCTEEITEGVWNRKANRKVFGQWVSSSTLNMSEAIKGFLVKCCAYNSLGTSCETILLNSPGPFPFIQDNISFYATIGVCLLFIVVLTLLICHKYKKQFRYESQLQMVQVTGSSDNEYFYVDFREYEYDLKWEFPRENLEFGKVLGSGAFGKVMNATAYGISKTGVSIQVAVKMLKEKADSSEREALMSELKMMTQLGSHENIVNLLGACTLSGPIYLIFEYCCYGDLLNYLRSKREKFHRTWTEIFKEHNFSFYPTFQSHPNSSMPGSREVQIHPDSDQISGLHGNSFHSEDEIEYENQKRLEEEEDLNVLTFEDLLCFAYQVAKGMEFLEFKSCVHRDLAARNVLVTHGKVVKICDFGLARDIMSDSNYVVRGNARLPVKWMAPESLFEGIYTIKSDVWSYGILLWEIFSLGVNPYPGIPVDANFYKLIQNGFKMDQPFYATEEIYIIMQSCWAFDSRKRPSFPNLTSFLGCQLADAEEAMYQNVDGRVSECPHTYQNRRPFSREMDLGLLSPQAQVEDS
Method: Cellular Chem-CLIP/C-Chem-CLIP to Study Occupancy of an RTK. Compound treatment and isolation of cells was completed as described for cellular occupancy studies of pre-miR-21. Total protein was extracted and concentration determined as described in the “Western Blotting” section. Approximately 1 mg of total protein was used for following pull-down experiments, using a protocol adapted from a previously published method 8. Protein cross-linked to the probe were clicked to disulfide biotin azide as described above except the amount of each reagents was doubled (20 μL/sample). Then, to the mixture was added ice-cold, 4:1 mixture of methanol/chloroform (2.5 mL) followed by 1 mL of ice-cold 1×DPBS. The mixture was centrifuged at 5000×g for 10 min at 4° C. to fractionate a protein interphase between organic and aqueous layers. […] The washed protein mixture was centrifuged at 5000×g for 10 min at 4° C. to pellet the protein. The pellet was dissolved in H2O, and to this solution was added 20 μLL streptavidin beads for 30 min at room temperature. The solution was removed, and the beads were washed once with 0.2% SDS in 1×DPBS, twice with detergent-free 1×DPBS and twice with nanopure water. After these washing steps, protein was cleaved as described above. The supernatant was collected, and protein concentration was determined with Pierce Micro BCA Protein Assay kit. […] Sample preparation was completed as described above for cellular Chem-CLIP studies. Western blotting was performed on total protein (10 μg) before or after pull-down, indicated as “Input” or “Output”, as described in Western Blotting.

[2] = test system: pre-miR-21; assay: RT-qPCR of pre-miR-21 levels in MDA-MB-231 cells; assay type: cell-based, human; conditions: for pre-miR-21 levels: MDA-MB-231, RT-qPCR
Method: Cell Culture. Cells were cultured at 37° C. and 5% CO2. MDA-MB-231 cells (HTB-26, ATCC) were cultured in RMPI 1640 medium with L-glutamine & 25 mM HEPES supplemented with 1× Antibiotic/Antimycotic solution (Corning) and 10% FBS. MCF-10A cells (CRL-10317, ATCC) were cultured in 1×DMEM/F12 50/50 with L-glutamine & 15 mM HEPES (Corning) supplemented with 20% FBS, 1× Antibiotic/Antimycotic solution, 20 ng/mL human epidermal growth factor (Pepro Tech, Inc.), 10 μg/mL insulin (Sigma-Aldrich), and […] hydrocortisone (Pfaltz & Bauer). For compound treatment, compound stocks either in DMSO or water were diluted in growth medium and added to cells for the indicated time. Plasmid DNA to overexpress pre-miR-21 in pcDNA 3.1 (Addgene 21114) or a plasmid DNA encoding the pre-miR-21 mutant (custom purchased from GenScript USA, Inc.) was transfected with jetPRIME per the manufacturer's protocol. After transfection, the medium was replaced with growth medium containing the compound of interest, prepared as described above. The RNase L-targeting siRNA or a control siRNA was transfected with Lipofectamine RNAiMAX reagent (Invitrogen) per the manufacturer's protocol.
(§1) RNA Isolation and Quantitative Real-Time PCR (RT-qPCR). After treatment, total RNA was extracted and purified by using the Zymo Quick-RNA mini prep kit per the manufacturer's protocol. Reverse Transcription (RT) for mature miRNAs as well as pri- and pre-miR-21 was completed on 200 ng of RNA by using a miScript 11 RT kit (QIAGEN) according to manufacturer's protocol. RT of mRNAs was performed by using QScript kit (Quanta Bio). An Applied Biosystems QS5 384-well PCR system was used to complete qPCR experiments using Power Sybr Green Mater Mix (Life Technologies) as described previously^6.

[3] = test system: miR-21; assay: RT-qPCR of mature miR-21 levels in MDA-MB-231 cells; assay type: cell-based, human; conditions: for mature miR-21 levels: MDA-MB-231, RT-qPCR; for reduction of mature miR-21 levels: 1 μM
Method: Cell Culture. Cells were cultured at 37° C. and 5% CO2. […] For compound treatment, compound stocks either in DMSO or water were diluted in growth medium and added to cells for the indicated time. […] After transfection, the medium was replaced with growth medium containing the compound of interest, prepared as described above. The RNase L-targeting siRNA or a control siRNA was transfected with Lipofectamine RNAiMAX reagent (Invitrogen) per the manufacturer's protocol.
as §1

Row | Structure (SMILES) | enrichment of FLT3 by probe ([1]; MDA-MB-231) | pre-miR-21 levels [2] | mature miR-21 levels [3] | competition of cleavage of pre-miR-21 by RIBOTAC 2 ([2]; constant concentration of 2 (1 μM), increasing competitor) | reduction of mature miR-21 levels ([3]; MDA-MB-231) | decrease of mature miR-21 levels ([3]; 5 μM dose, MDA-MB-231) [%] | fold decrease / difference in cellular protein occupancy versus 1 [1] [fold] | competition of FLT3 enrichment by probe 4 ([1]; 0.01-10 μM pre-treatment) | IC50 ([1]; C-Chem-CLIP, MDA-MB-231, read-out: IC50 for inhibition of the Chem-CLIP probe binding to FLT3) [µM] | concentration competing off probe 4 from FLT3 to the same extent ([1]; probe 4 1 μM) [µM] | cleavage of pre-miR-21 upon knock down of RNase L with an siRNA ([2]; MDA-MB-231) | concentration giving a reduction of mature miR-21 similar to 5 μM of 1 ([3]; MDA-MB-231) [nM] | fold increase in potency / miR-21 inhibitory activity compared with 1 ([3]; MDA-MB-231) [fold]
1 | C#CCCC1(CCC(=O)NCCN2CCN(c3ccc4[nH]c(-c5c(N)c6c(F)cccc6[nH]c5=O)nc4c3)CC2)N=N1 [Compound 4] | enriched | increases | decreases | – | – | – | – | – | – | – | – | – | –
2 | CN1CCN(c2ccc3nc(-c4c(N)c5c(F)cccc5[nH]c4=O)[nH]c3c2)CC1 [Compound 1, Dovitinib, reference compound] | – | increased; also recorded: enhanced | significantly reducing mature miR-21 levels; also recorded: reduced | competed away cleavage | not reduced | 32±4 | – | – | – | – | – | – | –
3 | CCOC(=O)C1=C(Nc2ccccc2)S/C(=C\c2ccc(OCCOCCOCCOCCNC(=O)NCCN3CCN(c4ccc5[nH]c(-c6c(N)c7c(F)cccc7[nH]c6=O)nc5c4)CC3)c(O)c2)C1=O [Compound 2, Ribotac-Dovitinib] | – | decreased; also recorded: reduced | reduced | – | ~ 45±9% | – | 100 | competed off | 10 | 10 | reduced; also recorded: repressed cleavage | 200 | 25

Reference: patent publication US12702715B2, “Targeted RNA degradation allows precision repurposing of protein-targeted small molecule medicines to RNA” (University of Florida Research Foundation, Incorporated, priority 2020, dated 2026)
